The results in this text go back to US11186577B2, “Vasopressin receptor antagonists and products and methods related thereto” (BlackThorn Therapeutics, Inc., priority 2017, dated 2021).

The target of the first assay is human Arginine Vasopressin Receptor 1a (AVPR1a) (Homo sapiens (Human), UniProt P37288). The assay can be described thus: Vasopressin V1A receptor antagonist assay (AVP-evoked calcium, FLIPR, CHO-AVPR1a cells). Format: cell-based.
Chain of human Arginine Vasopressin Receptor 1a (AVPR1a) (P37288 whole entry): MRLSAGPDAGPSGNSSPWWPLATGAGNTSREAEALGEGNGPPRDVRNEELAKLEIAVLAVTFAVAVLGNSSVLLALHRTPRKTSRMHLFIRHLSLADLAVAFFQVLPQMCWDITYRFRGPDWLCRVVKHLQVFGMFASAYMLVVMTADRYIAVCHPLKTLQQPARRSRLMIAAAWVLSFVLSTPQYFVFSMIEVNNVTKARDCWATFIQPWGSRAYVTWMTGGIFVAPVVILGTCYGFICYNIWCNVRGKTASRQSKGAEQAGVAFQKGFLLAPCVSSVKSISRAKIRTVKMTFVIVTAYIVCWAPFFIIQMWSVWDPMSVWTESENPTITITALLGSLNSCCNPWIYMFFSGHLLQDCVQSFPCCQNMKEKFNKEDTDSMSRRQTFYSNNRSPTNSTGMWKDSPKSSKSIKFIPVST
Conditions: not given
As to the method: The purpose of this assay was to determine the inhibitory effect of synthesized compounds on the Vasopressin V1a receptor. The assay as performed in Chinese Hamster Ovary (CHO) cells expressing the human Arginine Vasopressin Receptor 1a (AVPR1a). Arginine Vasopressin (AVP) evokes an increase in intracellular calcium in CHO-AVPR1a cells which is measured in a fluorescence assay on the FLIPR^TETRA using calcium sensitive dyes. Test compounds were assessed for their ability to affect the magnitude of the response to AVP, with antagonists showing a concentration-dependent reduction in the AVP-mediated fluorescence. Compounds were tested in duplicate in a 10-point, 1:3 dilution series starting at a nominal concentration of 3 μM in the assay.
CHO-AVPR1a cells were maintained in routine culture in T175 Flasks at 37° C., 5% CO2. The growth medium consists of Ham's F12 media supplemented with 10% v/v fetal bovine serum, 1× non-essential amino acids, and 0.4 mg/ml Geneticin G418.
On day one, cells were harvested from T175 flasks when they are 80-90% confluent by first washing the cell monolayer with PBS and then dissociated using trypsin 0.05%/EDTA (3 mL for a T175 Flask). The flasks were incubated at room temperature until the cells detached. To the cell suspension, 10 ml of growth media was added and the cell density determined using the Vi-Cell automated cell counter. The cells were spun at 1000 rpm for 3 minutes, then the supernatant was carefully removed and discarded. The cell pellet was re-suspended at 6.0e^5 cells/ml in growth media. 25 μL of cells in growth media was dispensed into each well (15,000 cells per well) of a poly-D-lysine coated black, clear bottomed, 384-well plate. The plates were incubated at 37° C., 5% CO2 overnight.
At the start of each assay day, the potency of AVP was assessed and an EC80 concentration determined for subsequent compound profiling. Assays were performed using a two-step addition protocol on the FLIPR^TETRA; first addition of 5 μl of control or test compound at 10× final in assay buffer with 15 min incubation at 37° C., 5% CO2 followed by 10 μl of AVP at 6× final concentration in assay buffer. […] The assay buffer consisted of HBSS (+Ca/+Mg) supplemented with 20 mM HEPES, and for the preparation of the AVP agonist only, 0.1% w/v bovine serum albumin. The assay was initiated by the removal of growth media from the cells and replacement with 45 μl of Calcium-6 dye (Molecular Devices) prepared at 1× in assay buffer. Cells are loaded with dye for 60-90 min at 37° C., 5% CO2 before initiation of the FLIPR^TETRA protocol. […] At the end of the incubation period, 10 μl of AVP in assay buffer containing 0.1% BSA was added at the previously determined EC80 concentration.
On to `CN1Cc2cc(Cl)ccc2-n2c(nnc2C2CC3(C2)CN(c2cccnc2)C3)C1` [compound 5], for which the IC50 was 100 to 500 nM.
Still for that read-out and setting: the result for `COc1cccc(N2CC3(CC(c4nnc5n4-c4ccc(Cl)cc4CN(C)C5)C3)C2)n1` [compound 7] reads 100 to 500 nM; that for `CN1Cc2cc(Cl)ccc2-n2c(nnc2C2CC3(C2)CN(C(=O)OC(C)(C)C)C3)C1` [compound 9], 100 to 500 nM; that for `CN1Cc2cc(Cl)ccc2-n2c(nnc2C2CC3(C2)CN(c2cncc(F)c2)C3)C1` [compound 10], 100 to 500 nM.
On to `COc1ccc(N2CC3(CC(c4nnc5n4-c4ccc(Cl)cc4CN(C)C5)C3)C2)nc1` [compound 11], for which the concentration for half-maximal inhibition (IC50) lay in the range of 500 to 1000 nM.
In the case of `CN1Cc2cc(Cl)ccc2-n2c(nnc2C2CC3(C2)CN(c2ccncn2)C3)C1` [compound 243], the IC50 lay within 100 to 500 nM.
For `Cc1cncnc1N1CC2(CC(c3nnc4n3-c3ccc(Cl)cc3CN(C)C4)C2)C1` [compound 251], the IC50 was in the range of 100 to 500 nM.
For `Cc1cnc(N2CC3(CC(c4nnc5n4-c4ccc(Cl)cc4CN(C4(C)CC4)C5)C3)C2)nc1` [compound 253], the IC50 was in the range of 100 to 500 nM.
Still for that read-out and setting: as for `CC1(N2Cc3cc(Cl)ccc3-n3c(nnc3C3CC4(C3)CN(c3ccncn3)C4)C2)CC1` [compound 254], the figure is 100 to 500 nM; as for `CN1Cc2cc(Cl)ccc2-n2c(nnc2C2CC3(C2)CN(c2nccc4c2ncn4C)C3)C1` [compound 257], 500 to 1000 nM; as for `Cc1ccc(N2CC3(CC(c4nnc5n4-c4ccc(Cl)cc4CN(C4(C)CC4)C5)C3)C2)nc1` [compound 265], 100 to 500 nM.
On to `Cc1nc(N2CC3(CC(c4nnc5n4-c4ccc(Cl)cc4CN(C)C5)C3)C2)no1` [compound 266, 3-(6-(8-chloro-5-methyl-5,6-dihydro-4H-benzo[f][1,2,4]triazolo[4,3-a][1,4]diazepin-1-yl)-2-azaspiro[3.3]heptan-2-yl)-5-methyl-1,2,4-oxadiazole], for which the IC50 fell in the range of 500 to 1000 nM.
Consider `Cc1nc(N2CC3(CC(c4nnc5n4-c4ccc(Cl)cc4CN(C4CC4)C5)C3)C2)no1` [compound 268, 3-(6-(8-chloro-5-cyclopropyl-5,6-dihydro-4H-benzo[f][1,2,4]triazolo[4,3-a][1,4]diazepin-1-yl)-2-azaspiro[3.3]heptan-2-yl)-5-methyl-1,2,4-oxadiazole], for which the IC50 was in the range of 100 to 500 nM.
Take `Clc1ccc2c(c1)CN(C1CC1)Cc1nnc(C3CC4(C3)CN(c3noc(C5CC5)n3)C4)n1-2` [compound 269]: the IC50 lay in the range of 500 to 1000 nM.
As for `Cc1nccc(N2CC3(CC(c4nnc5n4-c4ccc(Cl)cc4CN(C4CC4)C5)C3)C2)n1` [compound 270], the IC50 is 100 to 500 nM.

Still in this assay, the particulars now being: read-out: V1a IC50.
For `CC1c2nnc(C3CC4(C3)CN(c3ccc(F)cn3)C4)n2-c2ccc(Cl)cc2CN1C(=O)OC(CF)CF` (single isomer, unassigned) [Cpd 203B], the IC50 was > 1000 nM.
For `Cc1cccc(N2CC3(CC(c4nnc5n4-c4ccc(Cl)cc4CN(C)C5)C3)C2)n1` [compound 6], the IC50 is < 100 nM.
Same read-out and setting: as for `Cc1nccnc1N1CC2(CC(c3nnc4n3-c3ccc(Cl)cc3CN(C3(C)CC3)C4)C2)C1` [compound 244], the figure is < 100 nM; as for `Cc1cc(N2CC3(CC(c4nnc5n4-c4ccc(Cl)cc4CN(C4(C)CC4)C5)C3)C2)ncc1F` [compound 245], < 100 nM; as for `O=C(NC1CC1)N1Cc2cc(Cl)ccc2-n2c(nnc2C2CC3(C2)CN(c2ccc(F)cn2)C3)C1` [compound 246, 8-chloro-N-cyclopropyl-1-(2-(5-fluoropyridin-2-yl)-2-azaspiro[3.3]heptan-6-yl)-4H-benzo[f][1,2,4]triazolo[4,3-a][1,4]diazepine-5(6H)-carboxamide], < 100 nM.
Take `Fc1cncnc1N1CC2(CC(c3nnc4n3-c3ccc(Cl)cc3CN(C3CC3)C4)C2)C1` [compound 247]: the concentration for half-maximal inhibition (IC50) is < 100 nM.
For the compound `N#Cc1ccnc(N2CC3(CC(c4nnc5n4-c4ccc(Cl)cc4CN(C4CC4)C5)C3)C2)n1` [compound 248], the IC50 was < 100 nM.
With `COc1cc(N2CC3(CC(c4nnc5n4-c4ccc(Cl)cc4CN(C4CC4)C5)C3)C2)ncc1F` [compound 249], the IC50 was < 100 nM.
On to `Cn1nc(N2CC3(CC(c4nnc5n4-c4ccc(Cl)cc4CN(C4CC4)C5)C3)C2)c2cccnc21` [compound 250], for which the IC50 was < 100 nM.
For `Cc1cc(N2CC3(CC(c4nnc5n4-c4ccc(Cl)cc4CN(C)C5)C3)C2)ncc1F` [compound 252], the IC50 is < 100 nM.
For `CN1Cc2cc(Cl)ccc2-n2c(nnc2C2CC3(C2)CN(c2noc4ccccc24)C3)C1` [compound 256], the IC50 is < 100 nM.
On the same count and under the same terms, the result for `CN1Cc2cc(Cl)ccc2-n2c(nnc2C2CC3(C2)CN(c2nc4cnccc4n2C)C3)C1` [compound 258] reads > 1000 nM.
As to `Cc1nc(N2CC3(CC(c4nnc5n4-c4ccc(Cl)cc4CN(C4(C)CC4)C5)C3)C2)ccc1F` [compound 260], the IC50 is < 100 nM.
Consider `CC1(N2Cc3cc(Cl)ccc3-n3c(nnc3C3CC4(C3)CN(c3ncc(F)cn3)C4)C2)CC1` [compound 261], for which the IC50 is < 100 nM.
Regarding `CC1(N2Cc3cc(Cl)ccc3-n3c(nnc3C3CC4(C3)CN(c3cccc(C#N)n3)C4)C2)CC1` [compound 262], the IC50 is < 100 nM.
Consider `CC1(N2Cc3cc(Cl)ccc3-n3c(nnc3C3CC4(C3)CN(c3nccc(C#N)n3)C4)C2)CC1` [compound 263], for which the IC50 is < 100 nM.
As for `CC1(N2Cc3cc(Cl)ccc3-n3c(nnc3C3CC4(C3)CN(c3ncccn3)C4)C2)CC1` [compound 264], the IC50 is < 100 nM.
As for `CN1Cc2cc(Cl)ccc2-n2c(nnc2C2CC3(C2)CN(c2noc(C4CC4)n2)C3)C1` [compound 267], the IC50 is > 1000 nM.
For `FC(F)(F)Oc1cccnc1N1CC2(CC(c3nnc4n3-c3ccc(Cl)cc3CN(C3CC3)C4)C2)C1` [compound 272], the IC50 is < 100 nM.
In the case of `Cc1ccc(F)c(N2CC3(CC(c4nnc5n4-c4ccc(Cl)cc4CN(C4CC4)C5)C3)C2)n1` [compound 273], the IC50 was < 100 nM.
With `COc1ccc(C)nc1N1CC2(CC(c3nnc4n3-c3ccc(Cl)cc3CN(C3CC3)C4)C2)C1` [compound 274], the IC50 was < 100 nM.
`Cc1cc(C)nc(N2CC3(CC(c4nnc5n4-c4ccc(Cl)cc4CN(C4CC4)C5)C3)C2)c1` [compound 275]: the IC50 was < 100 nM.

A further assay deals with human Oxytocin Receptor (hOTR) (Homo sapiens (Human), UniProt P30559). As to the kind of experiment: Oxytocin receptor antagonist assay (oxytocin-evoked calcium, FLIPR, CHEM-1-hOTR cells). It is filed as cell-based. To be noted: read-out: OT IC50. As to the method: This assay was performed in CHEM-1 cells expressing the human Oxytocin Receptor (hOTR) to determine the inhibitory effect of the compounds of the invention on the human Oxytocin receptor. Oxytocin evokes an increase in intracellular calcium in CHEM-1-hOTR cells which is measured in a fluorescence assay on the FLIPR^TETRA using calcium sensitive dyes. Test compounds were assessed for their ability to affect the magnitude of the response to oxytocin, with antagonists showing a concentration-dependent reduction in the oxytocin-mediated fluorescence.
Chain of human Oxytocin Receptor (hOTR) (P30559 whole entry): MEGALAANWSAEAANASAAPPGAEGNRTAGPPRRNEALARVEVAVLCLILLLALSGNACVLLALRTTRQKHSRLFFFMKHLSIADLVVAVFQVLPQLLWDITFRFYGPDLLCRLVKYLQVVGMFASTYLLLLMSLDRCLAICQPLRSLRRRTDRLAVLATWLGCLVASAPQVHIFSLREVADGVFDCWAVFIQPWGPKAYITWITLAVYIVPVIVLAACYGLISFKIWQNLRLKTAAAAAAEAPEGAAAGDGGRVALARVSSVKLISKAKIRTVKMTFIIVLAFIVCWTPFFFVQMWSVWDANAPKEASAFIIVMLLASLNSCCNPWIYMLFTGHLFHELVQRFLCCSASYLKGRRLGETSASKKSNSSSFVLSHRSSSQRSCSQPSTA
CHEM-1-hOTR ready was used to assay frozen cells (Eurofins #HTS090RTA) which are supplied with a proprietary Media Component.
Cells were thawed in a 37° C. water bath and diluted with the supplied Media Component to a final volume of 10 ml. The cell suspension was centrifuged at 1000 rpm for 3 min at room temperature and the supernatant was discarded. The cell pellet was resuspended in Media Component (10.5 ml) and the cells (25 μL) were dispensed into a poly-D-lysine coated black, clear bottomed, 384-well plate. The plates were incubated overnight at 37° C., 5% CO2.
At the start of each assay day the potency of oxytocin was assessed and an EC80 concentration was determined for subsequent compound profiling. Assays were performed using a two-step addition protocol on the FLIPR^TETRA; first addition of 5 μl of control or test compound at 10× final in assay buffer with 15 min incubation at 37° C., 5% CO2 followed by 10 μl of oxytocin at 6× final concentration in assay buffer. Changes in fluorescence were monitored for 3 min after both additions on the FLIPR^TETRA using 470-495 nm excitation and 515-575 nm emission wavelengths. The assay buffer consisted of HBSS (+Ca/+Mg) supplemented with 20 mM HEPES, and for the preparation of the oxytocin agonist only, 0.1% w/v bovine serum albumin. The assay was initiated by the removal of growth media from the cells and replaced with 45 μl of Calcium-6 dye (Molecular Devices) prepared at 1× in assay buffer. Cells were loaded with dye for 60-90 min at 37° C., 5% CO2 before initiation of the FLIPR^TETRA protocol. […] For compound profiling, test compounds were first serially diluted in DMSO (10-point curve, 1:3 dilutions) then diluted 33.3-fold in assay buffer prior to addition to the dye loaded cells on the FLIPR^TETRA. At the end of the incubation period 10 μl of oxytocin in assay buffer containing 0.1% BSA was added at the previously determined EC80 concentration.
In-plate controls for the assay include a L-368,899 concentration-response curve as the reference OTR antagonist and an oxytocin concentration-response curve to confirm the reproducibility of the EC80 used for the compound challenge.
As for `CC1c2nnc(C3CC4(C3)CN(c3ccc(F)cn3)C4)n2-c2ccc(Cl)cc2CN1C(=O)OC(CF)CF` (single isomer, unassigned) [Cpd 203B], the IC50 was > 1000 nM.
As to `CN1Cc2cc(Cl)ccc2-n2c(nnc2C2CC3(C2)CN(c2cccnc2)C3)C1` [compound 5], the IC50 is > 1000 nM.
Still for that read-out and setting: the result for `Cc1cccc(N2CC3(CC(c4nnc5n4-c4ccc(Cl)cc4CN(C)C5)C3)C2)n1` [compound 6] reads > 1000 nM; that for `COc1cccc(N2CC3(CC(c4nnc5n4-c4ccc(Cl)cc4CN(C)C5)C3)C2)n1` [compound 7], > 1000 nM.
`CN1Cc2cc(Cl)ccc2-n2c(nnc2C2CC3(C2)CN(C(=O)OC(C)(C)C)C3)C1` [compound 9]: the IC50 lay within 500 to 1000 nM.
Take `CN1Cc2cc(Cl)ccc2-n2c(nnc2C2CC3(C2)CN(c2cncc(F)c2)C3)C1` [compound 10]: the IC50 is > 1000 nM.
With `COc1ccc(N2CC3(CC(c4nnc5n4-c4ccc(Cl)cc4CN(C)C5)C3)C2)nc1` [compound 11], the IC50 is > 1000 nM.
